Among the data in PubChem BioAssay (NCI) are TGI values, retold here.

The structures appear in SMILES notation.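 How tested: cells in 96-well plates exposed to compound for 48 hours at five concentrations. At the TGI there is no net growth.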

Some test systems named below: BT-549 breast; COLO 205 colon; DU-145 prostate; HS 578T breast; HT29 colon; IGROV1 ovarian; LOX IMVI melanoma; MCF7 breast; MDA-MB-435; NCI-H226 lung; NCI/ADR-RES ovarian; OVCAR-8 ovarian; RXF 393 renal; SF-295 CNS; SK-OV-3 ovarian; SN12C renal; SNB-19 CNS; SNB-75 CNS; SR leukemia; T-47D breast.
Experiment in all cases: growth of human tumour cells (NCI), 48 h

As for `CCN(CC)c1ccc2cc(C(N)=S)c(=N)oc2c1`, the TGI with BT-549 breast, in the test with COLO 205 colon, in the test with DU-145 prostate, with HS 578T breast, with HT29 colon and in the test on IGROV1 ovarian was more than 100 µM each time. For the same molecule, the TGI in the test on LOX IMVI melanoma, with MCF7 breast, in the test with MDA-MB-435, in the test with NCI-H226 lung, in the test on NCI/ADR-RES ovarian and in the test with OVCAR-8 ovarian was more than 100 µM each time. Moreover, the TGI in the test with RXF 393 renal, with SF-295 CNS, in the test on SK-OV-3 ovarian, in the test with SN12C renal, with SNB-19 CNS and in the test with SNB-75 CNS was more than 100 µM each time. In addition, the TGI with SR leukemia and in the test with T-47D breast was more than 100 µM throughout.

With `COC(=O)[C@]12CC[C@H]3CC[C@H]([C@H]31)[C@H](c1ccccc1)N2`, the TGI in the test with BT-549 breast was 34.3 µM; in the test with COLO 205 colon it was 30.8 µM; in the test on DU-145 prostate, 47.8 µM; in the test on HS 578T breast, 49.8 µM; in the test on HT29 colon, 29.5 µM; in the test on IGROV1 ovarian it was 34.3 µM. Further, the TGI with LOX IMVI melanoma came to 32.1 µM; in the test on MCF7 breast, 31.2 µM; in the test on MDA-MB-435, 34.6 µM; in the test on NCI-H226 lung, 31.6 µM; in the test with NCI/ADR-RES ovarian, 33.4 µM; in the test on OVCAR-8 ovarian it was 37 µM. Moreover, the TGI was 30.9 µM in the test on RXF 393 renal; 32.3 µM in the test with SF-295 CNS; 77.7 µM in the test on SK-OV-3 ovarian; 29.5 µM with SN12C renal; 47.3 µM with SNB-19 CNS; 58.1 µM in the test on SNB-75 CNS. In addition, the TGI with SR leukemia turned out to be 38.8 µM; with T-47D breast, 50.3 µM.

For `O=C(c1c(F)c(F)c(F)c(F)c1F)N1CCN(C(=O)c2c(F)c(F)c(F)c(F)c2F)C1=S`, the TGI in the test with BT-549 breast was 27.8 µM; in the test with COLO 205 colon, 18.6 µM; in the test with DU-145 prostate, 27.2 µM; with HS 578T breast, 18.9 µM; in the test with HT29 colon it was 12.9 µM; in the test with IGROV1 ovarian it was 8.96 µM. The TGI in the test with LOX IMVI melanoma was 6.57 µM; in the test with MCF7 breast, 21.1 µM; with MDA-MB-435 it was 11.9 µM; in the test with NCI-H226 lung it was 30.8 µM; in the test with NCI/ADR-RES ovarian it was 32.1 µM; in the test on OVCAR-8 ovarian, 12.9 µM. For the same molecule, the TGI in the test on RXF 393 renal turned out to be 9.27 µM; with SF-295 CNS, 28.5 µM; in the test on SK-OV-3 ovarian, 21.6 µM; in the test with SN12C renal, 24.5 µM; in the test on SNB-19 CNS, 30.1 µM; in the test on SNB-75 CNS, 23 µM. Besides, the figures for the TGI in the test on SR leukemia and with T-47D breast were more than 100 µM and 24.2 µM, respectively.

As for `O=C(N/N=C/c1c(-c2ccccc2)no[n+]1[O-])N1CCOCC1`, the TGI with BT-549 breast, in the test with COLO 205 colon, with DU-145 prostate, in the test on HS 578T breast, with HT29 colon and in the test with IGROV1 ovarian was more than 100 µM each time. Besides, the TGI in the test on LOX IMVI melanoma, in the test with MCF7 breast, with MDA-MB-435, with NCI-H226 lung, in the test on NCI/ADR-RES ovarian and in the test with OVCAR-8 ovarian was more than 100 µM in each case. The TGI with RXF 393 renal, in the test on SF-295 CNS, in the test with SK-OV-3 ovarian, with SN12C renal, in the test with SNB-19 CNS and in the test with SNB-75 CNS was more than 100 µM throughout. Also, the TGI was 45.1 µM in the test with SR leukemia and more than 100 µM with T-47D breast.

`O=C1c2ccccc2CN1c1ccc(OCCN2CCCCC2)cc1`: the TGI with BT-549 breast, with COLO 205 colon, in the test on DU-145 prostate, in the test with HS 578T breast, with HT29 colon and with IGROV1 ovarian was more than 10 µM throughout. For the same molecule, the TGI in the test on LOX IMVI melanoma, in the test on MCF7 breast, with MDA-MB-435, in the test on NCI-H226 lung, in the test with NCI/ADR-RES ovarian and in the test on OVCAR-8 ovarian was more than 10 µM throughout. The TGI in the test with RXF 393 renal, with SF-295 CNS, with SK-OV-3 ovarian, with SN12C renal, in the test with SNB-19 CNS and with SNB-75 CNS was more than 10 µM throughout. The TGI with SR leukemia and in the test with T-47D breast was more than 10 µM in each case.

As to `CC1CN=C(Nc2ccccc2)S1` (stereo not given), the TGI in the test on BT-549 breast, with COLO 205 colon, in the test on DU-145 prostate, with HS 578T breast, in the test with HT29 colon and in the test on IGROV1 ovarian was more than 100 µM each time. In addition, the TGI in the test with LOX IMVI melanoma, in the test with MCF7 breast, in the test with MDA-MB-435, in the test with NCI-H226 lung, in the test on NCI/ADR-RES ovarian and in the test on OVCAR-8 ovarian was more than 100 µM in each case. The TGI in the test with RXF 393 renal, in the test on SF-295 CNS, in the test on SK-OV-3 ovarian, in the test with SN12C renal, with SNB-19 CNS and in the test with SNB-75 CNS was more than 100 µM each time. The TGI with SR leukemia and with T-47D breast was more than 100 µM each time.
